# Source: ChEMBL document CHEMBL3745631, “Discovery of highly potent and selective Bruton's tyrosine kinase inhibitors: Pyridazinone analogs with improved metabolic stability” (Bioorg Med Chem Lett, 2016)
# Tests used:
# [1] = Inhibition of anti-IgM-stimulated human B cell proliferation
# Monocyte = assay: Inhibition of IC-induced IL-1beta release in human monocytes
# Cynomolgus monkey = assay: Clearance in cynomolgus monkey at 1 mg/kg, iv by LC-MS/MS analysis; assay type: ADME, organism-based, Macaca fascicularis; details: in vivo
# [2] = Oral bioavailability in mouse at 5 mg/kg by LC-MS/MS analysis; assay type: ADME, organism-based; details: in vivo
# [3] = biological target: Tyrosine-protein kinase Tec (Homo sapiens) (UniProt P42680); assay: Inhibition of TEC (unknown origin) at 1 uM
# [4] = biological target: Tyrosine-protein kinase Yes (Homo sapiens) (UniProt P07947); assay: Inhibition of Yes (unknown origin) at 1 uM
# [5] = biological target: Calcium/calmodulin-dependent protein kinase type 1 (Homo sapiens) (UniProt Q14012); assay: Inhibition of CaMKI (unknown origin) at 1 uM
# [6] = biological target: PAS domain-containing serine/threonine-protein kinase (Homo sapiens) (UniProt Q96RG2); assay: Inhibition of PASK (unknown origin) at 1 uM
# [7] = test system: RAF proto-oncogene serine/threonine-protein kinase (Homo sapiens), P04049 [Y340D,Y341D]; assay: Inhibition of RAF1 Y340D, Y341D mutant (unknown origin) at 1 uM
# [8] = biological target: Serine/threonine-protein kinase WNK2 (Homo sapiens) (UniProt Q9Y3S1); assay: Inhibition of WNK2 (unknown origin) at 1 uM
# [9] = biological target: Serine/threonine-protein kinase Nek9 (Homo sapiens) (UniProt Q8TD19); assay: Inhibition of NEK9 (unknown origin) at 1 uM
# [10] = biological target: Protein kinase C eta type (Homo sapiens) (UniProt P24723); assay: Inhibition of PKCeta (unknown origin) at 1 uM
# [11] = biological target: Maternal embryonic leucine zipper kinase (Homo sapiens, UniProt Q14680); assay: Inhibition of MELK (unknown origin)
# [12] = biological target: Serine/threonine-protein kinase mTOR (Homo sapiens) (UniProt P42345); assay: Inhibition of mTOR (unknown origin) at 1 uM
# [13] = biological target: Serine/threonine-protein kinase 25 (Homo sapiens) (UniProt O00506); assay: Inhibition of YSK1 (unknown origin) at 1 uM
# [14] = biological target: Myosin light chain kinase (Homo sapiens) (UniProt Q32MK0); assay: Inhibition of MYLK3 (unknown origin) at 1 uM
# [15] = biological target: Tyrosine-protein kinase HCK (Homo sapiens) (UniProt P08631); assay: Inhibition of Hck (unknown origin) at 1 uM
# [16] = biological target: Dual specificity protein kinase CLK3 (Homo sapiens) (UniProt P49761); assay: Inhibition of CLK3 (unknown origin) at 1 uM
# [17] = biological target: RAC-alpha serine/threonine-protein kinase (Homo sapiens) (UniProt P31749); assay: Inhibition of AKT1 (unknown origin) at 1 uM
# [18] = biological target: Cyclin-dependent kinase 5/CDK5 activator 1 (Homo sapiens) (UniProt Q00535+Q15078); assay: Inhibition of CDK5/p25 (unknown origin) at 1 uM; assay type: protein-complex assay
# [19] = biological target: Insulin receptor-related protein (Homo sapiens) (UniProt P14616); assay: Inhibition of IRR (unknown origin) at 1 uM
# [20] = biological target: MAP kinase-activated protein kinase 5 (Homo sapiens) (UniProt Q8IW41); assay: Inhibition of PRAK (unknown origin) at 1 uM
# [21] = biological target: Serine/threonine-protein kinase Nek4 (Homo sapiens) (UniProt P51957); assay: Inhibition of NEK4 (unknown origin) at 1 uM
# [22] = biological target: Serine/threonine-protein kinase BRSK1 (Homo sapiens) (UniProt Q8TDC3); assay: Inhibition of BrSK1 (unknown origin) at 1 uM
# [23] = biological target: Beta-adrenergic receptor kinase 1 (Homo sapiens) (UniProt P25098); assay: Inhibition of GRK2 (unknown origin) at 1 uM
# [24] = biological target: Serine/threonine-protein kinase B-raf (Homo sapiens) (UniProt P15056); assay: Inhibition of B-Raf (unknown origin) at 1 uM
# [25] = biological target: Vascular endothelial growth factor receptor 1 (Homo sapiens) (UniProt P17948); assay: Inhibition of Flt1 (unknown origin) at 1 uM
# [26] = biological target: Myosin light chain kinase, smooth muscle (Homo sapiens) (UniProt Q15746); assay: Inhibition of MYLK(smMLCK) (unknown origin) at 1 uM
# [27] = biological target: Death-associated protein kinase 3 (Homo sapiens) (UniProt O43293); assay: Inhibition of ZIPK (unknown origin) at 1 uM
# [28] = biological target: Mitogen-activated protein kinase kinase kinase 5 (Homo sapiens) (UniProt Q99683); assay: Inhibition of ASK1 (unknown origin) at 1 uM
# [29] = biological target: Tyrosine-protein kinase ABL1 (Homo sapiens) (UniProt P00519); assay: Inhibition of Abl (unknown origin) at 1 uM
# [30] = biological target: MAP kinase-activated protein kinase 2 (Homo sapiens) (UniProt P49137); assay: Inhibition of MAPKAPK2 (unknown origin) at 1 uM
# [31] = biological target: Mitogen-activated protein kinase 13 (Homo sapiens) (UniProt O15264); assay: Inhibition of p38 delta (unknown origin) at 1 uM
# [32] = biological target: Tyrosine-protein kinase ZAP-70 (Homo sapiens) (UniProt P43403); assay: Inhibition of ZAP-70 (unknown origin) at 1 uM
# [33] = biological target: Platelet-derived growth factor receptor beta (Homo sapiens) (UniProt P09619); assay: Inhibition of PDGFR_beta (unknown origin) at 1 uM
# [34] = biological target: Serine/threonine-protein kinase TBK1 (Homo sapiens) (UniProt Q9UHD2); assay: Inhibition of TBK1 (unknown origin) at 1 uM
# [35] = biological target: Ephrin type-A receptor 8 (Homo sapiens) (UniProt P29322); assay: Inhibition of EphA8 (unknown origin) at 1 uM
# [36] = biological target: Mitogen-activated protein kinase 1 (Homo sapiens) (UniProt P28482); assay: Inhibition of ERK2 (unknown origin) at 1 uM
# [37] = biological target: Inhibitor of nuclear factor kappa-B kinase subunit alpha (Homo sapiens) (UniProt O15111); assay: Inhibition of IKK alpha (unknown origin) at 1 uM
# [38] = biological target: Serine/threonine-protein kinase Chk1 (Homo sapiens) (UniProt O14757); assay: Inhibition of CHK1 (unknown origin) at 1 uM
# [39] = biological target: G protein-coupled receptor kinase 6 (Homo sapiens) (UniProt P43250); assay: Inhibition of GRK6 (unknown origin) at 1 uM
# [40] = biological target: Dual specificity mitogen-activated protein kinase kinase 1 (Homo sapiens) (UniProt Q02750); assay: Inhibition of MEK1 (unknown origin) at 1 uM
# [41] = biological target: Serine/threonine-protein kinase Sgk2 (Homo sapiens) (UniProt Q9HBY8); assay: Inhibition of SGK2 (unknown origin) at 1 uM
# [42] = biological target: Serine/threonine-protein kinase SIK2 (Homo sapiens) (UniProt Q9H0K1); assay: Inhibition of SIK2 (unknown origin) at 1 uM
# [43] = biological target: Serine/threonine-protein kinase MRCK alpha (Homo sapiens) (UniProt Q5VT25); assay: Inhibition of MRCK alpha (unknown origin) at 1 uM
# Serine/threonine-protein kinase SIK2 (Homo sapiens), sequence (Q9H0K1 whole entry, looked up): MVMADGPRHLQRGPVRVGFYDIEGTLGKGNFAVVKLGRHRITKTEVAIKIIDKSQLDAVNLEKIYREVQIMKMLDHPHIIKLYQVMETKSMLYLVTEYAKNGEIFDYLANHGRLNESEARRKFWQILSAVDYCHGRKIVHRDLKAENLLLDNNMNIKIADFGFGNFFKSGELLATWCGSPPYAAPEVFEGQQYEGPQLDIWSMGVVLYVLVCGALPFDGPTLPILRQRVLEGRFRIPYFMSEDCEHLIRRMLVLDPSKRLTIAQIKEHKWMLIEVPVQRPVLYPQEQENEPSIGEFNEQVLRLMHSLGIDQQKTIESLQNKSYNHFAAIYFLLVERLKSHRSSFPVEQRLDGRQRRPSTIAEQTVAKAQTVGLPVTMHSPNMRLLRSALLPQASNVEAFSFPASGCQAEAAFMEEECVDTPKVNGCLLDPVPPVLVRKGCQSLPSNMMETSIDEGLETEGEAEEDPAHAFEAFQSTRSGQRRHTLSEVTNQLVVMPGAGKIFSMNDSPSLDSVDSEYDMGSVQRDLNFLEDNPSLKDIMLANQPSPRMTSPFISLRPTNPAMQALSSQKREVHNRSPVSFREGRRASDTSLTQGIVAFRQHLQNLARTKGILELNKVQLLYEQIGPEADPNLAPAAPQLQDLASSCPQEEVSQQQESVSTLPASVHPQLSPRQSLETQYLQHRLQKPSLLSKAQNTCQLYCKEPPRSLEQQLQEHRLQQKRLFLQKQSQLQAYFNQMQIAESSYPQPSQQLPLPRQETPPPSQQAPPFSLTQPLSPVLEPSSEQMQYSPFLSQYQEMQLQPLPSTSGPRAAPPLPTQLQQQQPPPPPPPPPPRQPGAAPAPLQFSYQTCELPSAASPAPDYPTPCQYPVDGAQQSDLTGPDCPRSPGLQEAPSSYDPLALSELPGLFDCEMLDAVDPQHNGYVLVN
# Cyclin-dependent kinase 5/CDK5 activator 1 (Homo sapiens), sequence (Q00535 whole entry): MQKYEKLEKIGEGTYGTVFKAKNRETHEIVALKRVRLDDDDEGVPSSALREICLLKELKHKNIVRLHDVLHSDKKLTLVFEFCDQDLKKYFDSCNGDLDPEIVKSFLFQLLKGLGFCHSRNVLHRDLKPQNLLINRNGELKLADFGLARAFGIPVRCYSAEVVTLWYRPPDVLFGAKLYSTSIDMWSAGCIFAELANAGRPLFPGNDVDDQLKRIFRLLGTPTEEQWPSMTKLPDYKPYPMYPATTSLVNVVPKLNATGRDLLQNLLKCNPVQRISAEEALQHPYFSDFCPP
# Cyclin-dependent kinase 5/CDK5 activator 1 (Homo sapiens), sequence (Q15078 99-307 partner limits assumed): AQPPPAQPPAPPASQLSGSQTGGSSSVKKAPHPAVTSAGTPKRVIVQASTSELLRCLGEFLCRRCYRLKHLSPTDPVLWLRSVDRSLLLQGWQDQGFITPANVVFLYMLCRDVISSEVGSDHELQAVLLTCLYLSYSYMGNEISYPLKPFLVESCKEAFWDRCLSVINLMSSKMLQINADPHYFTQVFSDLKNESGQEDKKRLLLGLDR
# Serine/threonine-protein kinase WNK2 (Homo sapiens), sequence (Q9Y3S1 whole entry): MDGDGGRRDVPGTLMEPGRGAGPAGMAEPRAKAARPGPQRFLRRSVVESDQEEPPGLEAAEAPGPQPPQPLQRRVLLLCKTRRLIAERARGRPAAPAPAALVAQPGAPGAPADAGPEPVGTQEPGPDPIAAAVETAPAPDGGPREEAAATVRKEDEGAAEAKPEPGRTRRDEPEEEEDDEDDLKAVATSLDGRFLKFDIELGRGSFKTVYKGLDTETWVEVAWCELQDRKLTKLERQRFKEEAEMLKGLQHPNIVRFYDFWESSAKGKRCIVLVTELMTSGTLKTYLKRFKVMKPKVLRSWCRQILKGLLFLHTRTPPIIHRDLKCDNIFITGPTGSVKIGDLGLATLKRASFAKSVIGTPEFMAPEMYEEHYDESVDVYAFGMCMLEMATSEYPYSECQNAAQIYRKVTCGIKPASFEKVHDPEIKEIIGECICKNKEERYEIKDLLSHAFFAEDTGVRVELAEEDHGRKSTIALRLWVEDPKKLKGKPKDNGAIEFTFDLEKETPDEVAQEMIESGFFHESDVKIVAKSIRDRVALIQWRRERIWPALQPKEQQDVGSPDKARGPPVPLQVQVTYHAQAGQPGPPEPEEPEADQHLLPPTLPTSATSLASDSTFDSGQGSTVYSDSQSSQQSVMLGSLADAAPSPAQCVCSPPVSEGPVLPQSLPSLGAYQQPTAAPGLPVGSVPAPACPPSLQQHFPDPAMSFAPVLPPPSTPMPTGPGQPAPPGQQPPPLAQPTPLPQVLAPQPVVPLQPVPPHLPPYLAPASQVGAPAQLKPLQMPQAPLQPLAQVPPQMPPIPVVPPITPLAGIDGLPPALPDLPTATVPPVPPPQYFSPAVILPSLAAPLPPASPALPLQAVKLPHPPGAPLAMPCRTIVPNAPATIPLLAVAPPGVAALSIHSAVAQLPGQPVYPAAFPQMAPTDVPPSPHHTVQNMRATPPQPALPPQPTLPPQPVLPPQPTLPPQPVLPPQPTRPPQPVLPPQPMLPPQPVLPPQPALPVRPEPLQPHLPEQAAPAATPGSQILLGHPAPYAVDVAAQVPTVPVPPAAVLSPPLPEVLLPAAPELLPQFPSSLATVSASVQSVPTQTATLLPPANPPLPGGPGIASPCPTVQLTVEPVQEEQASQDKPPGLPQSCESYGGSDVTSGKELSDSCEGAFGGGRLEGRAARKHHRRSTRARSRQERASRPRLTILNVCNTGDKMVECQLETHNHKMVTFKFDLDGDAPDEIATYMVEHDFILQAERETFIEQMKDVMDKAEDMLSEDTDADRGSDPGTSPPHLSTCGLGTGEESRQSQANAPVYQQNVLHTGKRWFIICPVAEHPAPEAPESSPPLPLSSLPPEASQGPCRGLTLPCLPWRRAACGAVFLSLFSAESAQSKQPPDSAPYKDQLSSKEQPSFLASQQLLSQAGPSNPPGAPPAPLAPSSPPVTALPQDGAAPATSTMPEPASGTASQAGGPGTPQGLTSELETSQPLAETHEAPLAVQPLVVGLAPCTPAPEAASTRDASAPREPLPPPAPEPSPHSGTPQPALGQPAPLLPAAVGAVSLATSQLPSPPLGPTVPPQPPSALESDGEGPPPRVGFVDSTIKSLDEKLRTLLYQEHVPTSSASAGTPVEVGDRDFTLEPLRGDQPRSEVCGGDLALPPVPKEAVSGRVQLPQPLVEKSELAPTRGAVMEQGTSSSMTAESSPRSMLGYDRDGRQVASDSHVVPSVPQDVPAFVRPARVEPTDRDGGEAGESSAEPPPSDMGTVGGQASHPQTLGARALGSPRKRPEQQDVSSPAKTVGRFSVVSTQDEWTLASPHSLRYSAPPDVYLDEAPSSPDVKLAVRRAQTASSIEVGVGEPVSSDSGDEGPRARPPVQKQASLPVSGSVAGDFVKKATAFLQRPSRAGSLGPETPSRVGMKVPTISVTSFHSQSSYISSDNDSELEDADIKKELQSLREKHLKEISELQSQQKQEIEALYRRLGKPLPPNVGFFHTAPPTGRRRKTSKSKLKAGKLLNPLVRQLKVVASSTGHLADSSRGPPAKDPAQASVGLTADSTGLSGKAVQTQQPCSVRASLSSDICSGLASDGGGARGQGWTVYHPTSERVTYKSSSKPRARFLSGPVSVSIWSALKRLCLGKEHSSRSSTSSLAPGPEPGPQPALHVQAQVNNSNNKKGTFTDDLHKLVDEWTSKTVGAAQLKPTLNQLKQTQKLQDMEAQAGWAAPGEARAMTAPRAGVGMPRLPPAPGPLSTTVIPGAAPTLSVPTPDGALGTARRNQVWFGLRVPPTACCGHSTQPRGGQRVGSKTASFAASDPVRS
# Myosin light chain kinase (Homo sapiens), sequence (Q32MK0 whole entry): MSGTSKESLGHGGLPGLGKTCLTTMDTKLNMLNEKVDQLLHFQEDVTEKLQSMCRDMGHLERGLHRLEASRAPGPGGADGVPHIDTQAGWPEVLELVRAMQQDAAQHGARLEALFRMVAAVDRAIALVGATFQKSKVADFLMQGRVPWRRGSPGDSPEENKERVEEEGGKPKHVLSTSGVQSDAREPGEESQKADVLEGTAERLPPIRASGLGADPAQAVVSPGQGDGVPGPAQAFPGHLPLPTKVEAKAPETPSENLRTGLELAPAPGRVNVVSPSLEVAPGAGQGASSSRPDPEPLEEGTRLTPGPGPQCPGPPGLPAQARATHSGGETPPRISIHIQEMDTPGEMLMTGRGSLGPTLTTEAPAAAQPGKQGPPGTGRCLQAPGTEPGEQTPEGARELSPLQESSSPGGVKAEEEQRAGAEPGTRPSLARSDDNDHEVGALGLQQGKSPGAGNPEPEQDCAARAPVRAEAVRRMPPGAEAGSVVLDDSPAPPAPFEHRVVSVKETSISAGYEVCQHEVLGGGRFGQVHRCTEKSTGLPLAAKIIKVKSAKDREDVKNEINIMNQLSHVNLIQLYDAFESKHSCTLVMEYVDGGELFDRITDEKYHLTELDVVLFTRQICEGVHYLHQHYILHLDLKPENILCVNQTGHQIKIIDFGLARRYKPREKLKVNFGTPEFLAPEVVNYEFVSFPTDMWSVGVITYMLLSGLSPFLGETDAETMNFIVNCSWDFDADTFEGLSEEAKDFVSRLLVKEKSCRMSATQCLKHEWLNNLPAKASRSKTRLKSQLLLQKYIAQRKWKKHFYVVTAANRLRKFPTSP
# Tyrosine-protein kinase HCK (Homo sapiens), sequence (P08631 2-526 limits assumed): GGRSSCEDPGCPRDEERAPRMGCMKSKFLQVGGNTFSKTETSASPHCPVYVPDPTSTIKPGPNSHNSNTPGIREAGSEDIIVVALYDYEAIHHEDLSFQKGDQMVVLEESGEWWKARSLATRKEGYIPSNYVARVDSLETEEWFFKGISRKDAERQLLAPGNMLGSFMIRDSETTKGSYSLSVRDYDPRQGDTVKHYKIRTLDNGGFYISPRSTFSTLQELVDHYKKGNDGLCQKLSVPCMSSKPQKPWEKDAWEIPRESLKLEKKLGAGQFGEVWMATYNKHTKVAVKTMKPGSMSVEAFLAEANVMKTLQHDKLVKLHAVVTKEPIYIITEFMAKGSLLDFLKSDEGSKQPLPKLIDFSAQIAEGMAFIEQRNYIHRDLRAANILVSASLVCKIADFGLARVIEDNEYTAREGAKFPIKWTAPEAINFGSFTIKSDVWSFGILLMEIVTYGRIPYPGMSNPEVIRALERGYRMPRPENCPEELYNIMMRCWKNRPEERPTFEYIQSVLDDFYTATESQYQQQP
smiles,measurement,setting,value
Cc1c(-c2cc(Nc3cc4n(n3)CCN(C)C4)c(=O)[nH]n2)ccc(F)c1NC(=O)c1cc2ccccc2s1,EC50,[1],6 nM
same,EC50,Monocyte,22 nM
same,clearance,Cynomolgus monkey,4 mL/min/kg
same,bioavailability,[2],34%
same,inhibition,[3],87.9%
same,inhibition,[4],20.8%
same,inhibition,[5],6.3%
same,inhibition,[6],6.2%
same,inhibition,[7],5.5%
same,inhibition,[8],-7.5%
same,inhibition,[9],-7.6%
same,inhibition,[10],-8%
same,IC50,[11],> 10000 nM
same,inhibition,[12],1.1%
same,inhibition,[13],-3.4%
same,inhibition,[14],3%
same,inhibition,[15],3%
same,inhibition,[16],2.9%
same,inhibition,[17],2.5%
same,inhibition,[18],2.4%
same,inhibition,[19],2.3%
same,inhibition,[20],2%
same,inhibition,[21],1%
same,inhibition,[22],0.8%
same,inhibition,[23],0.8%
same,inhibition,[24],0.6%
same,inhibition,[25],-0.7%
same,inhibition,[26],-0.8%
same,inhibition,[27],-2%
same,inhibition,[28],-2.1%
same,inhibition,[29],11.3%
same,inhibition,[30],10.8%
same,inhibition,[31],8.6%
same,inhibition,[32],8.1%
same,inhibition,[33],8%
same,inhibition,[34],7.5%
same,inhibition,[35],7.2%
same,inhibition,[36],6.8%
same,inhibition,[37],5.3%
same,inhibition,[38],4.8%
same,inhibition,[39],4.7%
same,inhibition,[40],4.5%
same,inhibition,[41],-2.3%
same,inhibition,[42],-3.9%
same,inhibition,[43],-4.5%
